Consider 9 molecules from patent US5488106A.

For test [1], the target named is β-lactamase Tal 3636 CcrA (Bacteroides fragilis, UniProt P25910). The test is described as follows: biochemical. The format is biochemical. On the procedure:
Representative compounds of the present invention are also tested to determine inhibition of an isolated metallo enzyme Group 3, the β-lactamase Tal 3636 CcrA. […] In the CI assay, enzyme is added last to a mixture of inhibitor and buffer. In the TDI assay, nitrocefin is added last to a mixture of enzyme and inhibitor that had been incubating for approximately 7 minutes.

The target in the next test is PC1 (Penase) (Staphylococcus aureus, UniProt P00807). The test is described as follows: Spectrophotometric inhibition with 10 minute preincubation, nitrocefin substrate. The format is biochemical.
The next test deals with TEM-2 (Bd Spectrum) (Escherichia coli, UniProt P62593, Q37K). It is filed as biochemical. As to conditions: Table III.
Another test deals with CcrA (Metallo) (Bacteroides fragilis, UniProt P25910). Kind of test: Spectrophotometric inhibition with 10 minute preincubation, nitrocefin substrate. The format is biochemical. As to conditions: for IC50: 10 minute preincubation, 25° C.
A further test has as its target P99 (Cephase) (Enterobacter cloacae, UniProt P05364). The description is as above. It is filed as biochemical. Particulars: for IC50: 10 minute preincubation, 25° C.
In another test the target is metallo-β-lactamase (Bacteroides fragilis, UniProt P25910). The test is described as follows: Long term inactivation of the metallo-β-lactamase, residual activity on nitrocefin. As to conditions: for remaining activity at 8 µM: 42 s, 8 μM inhibitor, after 0.7 minutes, read-out: control activity of metallo-β-lactamase remaining. The format is biochemical. Here is the method:
To test for long term inactivation of the metallo-β-lactamase, the inhibitors are mixed with enzyme and incubated overnight. Enzyme activity is tested for at periodic intervals by diluting the enzyme-inhibitor mixture into nitrocefin and comparing the enzymatic activity against that of an enzyme incubated only in assay broth. […].

For test [2], the system named is E. coli strains containing β-lactamases. The test is described as follows: Microbiological testing with piperacillin, β-lactamase-containing strains (summary in words). As to conditions: β-lactamase-producing strains.
A further test concerns E. cloacae + P99. Kind of test: MIC of piperacillin, broth serial two-fold dilutions, alone or 1:1 with inhibitor. As to conditions: piperacillin alone.
The subject of test [3] is E. coli 300 + P99 (cephase). The description is as above. Particulars: piperacillin alone.
A further test concerns E. coli 300. Described as above. Particulars: piperacillin alone.
The test system of a further test is E. coli + TEM-1. The test is described as above. Particulars: piperacillin alone.
Test [4] relates to E. coli 300 + CcrA (metallo-enzyme). The description is as above. As to conditions: piperacillin alone.
[5] abbreviates: CI: enzyme added last, 0.010M HEPES, pH 7.4, nitrocefin 100 μg/ml, read-out: IC50 CI HEPES.
The mark [6] stands for this setting: CI: enzyme added last, 0.05M phosphate buffer, pH 7.0, nitrocefin 100 μg/ml, read-out: IC50 CI PHOSPHATE
[7] abbreviates: TDI: approximately 7 minutes incubation, nitrocefin added last, 0.010M HEPES, pH 7.4, read-out: IC50 TDI HEPES.
Setting [8] is: TDI: approximately 7 minutes incubation, nitrocefin added last, 0.05M phosphate buffer, pH 7.0, read-out: IC50 TDI PHOSPHATE
The mark [9] stands for this setting: TDI: approximately 7 minutes incubation, nitrocefin added last, 0.010M HEPES, pH 7.4, 7 min, read-out: IC50 TDI HEPES.
[10] abbreviates: TDI: approximately 7 minutes incubation, nitrocefin added last, 0.05M phosphate buffer, pH 7.0, 7 min, read-out: IC50 TDI PHOSPHATE
The mark [11] stands for this setting: 10 minute preincubation, 25° C., read-out: IC50 PC1 (Penase).

Entries after “also recorded” stand apart in the source; their conditions may differ. Where a name gives a salt, the structure may show the parent alone. Read-outs that look alike come from different tables or passages of the source.

Usually IC50 stands for the concentration needed to halve the response being measured.

With `CC1(C)[C@H](C(=O)O)N2C(=O)[C@@H](CC3CC(c4ccsc4)=NO3)[C@H]2S1(=O)=O` (single isomer, unassigned) [Example 14, 4-Thia-1-azabicyclo[3.2.0.]heptane-2-carboxylic acid, 6-[[4,5-dihydro-3-(3-thienyl)-5-isoxazolyl]methyl]-3,3-dimethyl-7-oxo-, 4,4-dioxide, sodium salt, [2S-[2α, 5α, 6β(R* or S*)]]-], the IC50 came to 48 µM in test [1] (setting [5]), 33 µM in [1] (setting [6]), 3.5 µM in [1] (setting [7]) and 9.6 µM in test [1] (setting [8]).
On the same counts, the results for `CC1(C)[C@H](C(=O)O)N2C(=O)[C@@H](CC3CC(Br)=NO3)[C@H]2S1(=O)=O` (single isomer, unassigned) [Example 16, 4-Thia-1-azabicyclo[3.2.0]heptane-2-carboxylic acid, 6-[(3-bromo-4,5-dihydro-5-isoxazolyl)methyl]-3,3-dimethyl-7-oxo-, 4,4-dioxide, sodium salt, [2S-[2α,5α,6β(R* or S*)]]-] are 18 µM, 48 µM, 2.4 µM and 6 µM.
As for `CC1(C)[C@H](C(=O)O)N2C(=O)C[C@H]2S1(=O)=O` [Sulbactam, sulbactam, reference compound], the IC50 against PC1 (Penase) came to 0.08 µM.
For `Cc1ccc(C2=NOC(C[C@@H]3C(=O)N4[C@@H](C(=O)O)C(C)(C)S(=O)(=O)[C@H]34)C2)cc1` (stereo partly drawn) [Example 4, 4-Thia-1-azabicyclo[3.2.0]heptane-2-carboxylic acid, 6-[[4,5-dihydro-3-(4-methylphenyl)-5-isoxazolyl]-methyl]-3,3-dimethyl-7-oxo-, sodium salt, 4,4-dioxide, [2R-[2α,5α,6β(R*)]]-], the IC50 in test [1] (setting [5]) amounted to 9.7 µM; in test [1] (setting [6]), 16 µM; in test [1] (setting [9]), 1.3 µM; in [1] (setting [10]), 2 µM; against CcrA (Metallo), 0.65 µM; against P99 (Cephase), 0.0028 µM. Besides, the half-maximal inhibitory concentration (IC50) on PC1 (Penase) (setting [11]) worked out at 0.72 µM. Moreover, on TEM-2 (Bd Spectrum), the “Inhibition of 2b broad spectrum β-lactamase (in words)” value is “inhibited about equally”. The “Inhibition of Group 3 metallo-β-lactamases (in words)” value on CcrA (Metallo) (Table III) was “inhibited about equally”. Moreover, on P99 (Cephase) (Table III), the “Inhibition of P99 Group 1 cephalosporinase (in words)” value is given as “very potent inhibitor of the P99 Group 1 cephalosporinase”. In addition, the remaining activity at 8 µM on metallo-β-lactamase was found to be 44%. On metallo-β-lactamase (after overnight incubation), this molecule showed a metalloenzyme activity recovered of 71%. Besides, at PC1 (Penase) (Table III), the “Inhibition of PC1 Group 2a penicillinase (in words)” value was “inhibited about equally”. In addition, in test [2], the “Microbiological activity / effect on MICs of piperacillin (in words)” value (“Microbiological activity / effect” below) is recorded as “lowers the MICs for all the β-lactamases-producing strains; also recorded: more potent in vitro activity against the P99 cephase than the product of Example 10”.
For the molecule `Cc1ccc(C2=NOC(C[C@@H]3C(=O)N4[C@@H](C(=O)O)C(C)(C)S(=O)(=O)[C@H]34)C2)cc1` (stereo partly drawn) [Example 5, 4-Thia-1-azabicyclo[3.2.0.]heptane-2-carboxylic acid, 6-[[4,5-dihydro-3-(4-methylphenyl)-5-isoxazolyl]methyl]-3,3-dimethyl-7-oxo-, sodium salt, 4,4-dioxide, [2R-[2α,5α,6β(S*)]]-], the half-inhibitory concentration (IC50) came out at 27 µM in test [1] (setting [5]), 68 µM in [1] (setting [6]), 2 µM in test [1] (setting [9]) and 6.9 µM in test [1] (setting [10]).
For the molecule `CCC1=NOC(CC2C(=O)N3C(C(=O)O)C(C)(C)S(=O)(=O)C23)C1` (single isomer, unassigned) [Example 12], the IC50 in [1] (setting [5]) is greater than 250 µM; in [1] (setting [6]), greater than 250 µM; in test [1] (setting [7]) it was 77 µM; in [1] (setting [8]), 120 µM.
For the molecule `CCN1CCN(C(=O)N[C@@H](C(=O)N[C@@H]2C(=O)N3[C@@H]2SC(C)(C)[C@@H]3C(=O)O)c2ccccc2)C(=O)C1=O` [Piperacillin, piperacillin], the “Minimum Inhibitory Concentration of Piperacillin” value with E. cloacae + P99 was 128 µg/mL; in test [3], 16 µg/mL; in the test with E. coli 300, 1 µg/mL; in the test with E. coli + TEM-1 it was greater than 1024 µg/mL; in test [4], 4 µg/mL. In test [2], the “Microbiological activity / effect” value was “decreased microbiological activity (increased MICs) in E. coli strains that had β-lactamases introduced into them”.
On to `C[C@]1(Cn2ccnn2)[C@H](C(=O)O)N2C(=O)C[C@H]2S1(=O)=O` [Tazobactam, tazobactam, reference compound], for which the half-maximal inhibitory concentration (IC50) at PC1 (Penase) is 0.032 µM.
On to `CC(=O)OC(C1CC(c2ccc(C)cc2)=NO1)[C@@H]1C(=O)N2[C@@H](C(=O)O)C(C)(C)S(=O)(=O)[C@H]12` (stereo partly drawn) [Example 10, 4-Thia-1-azabicyclo[3.2,0]heptane-2-carboxylic acid, 6-[(acetyloxy)[4,5-dihydro-3-(4-methylphenyl)-5-isoxazolyl]methyl]-3,3-dimethyl-7-oxo-, sodium salt, 4,4-dioxide, [2S-(2α, 5α, 6β)]-], for which the IC50 in [1] (setting [5]) came to 100 µM; in test [1] (setting [6]), 210 µM; in test [1] (setting [7]) it was 3.9 µM; in test [1] (setting [8]), 3.2 µM; against CcrA (Metallo), 16 µM; at P99 (Cephase), 2.4 µM. Further, the IC50 at PC1 (Penase) (setting [11]) turned out to be 8 µM. The remaining activity at 8 µM at metallo-β-lactamase amounted to 45%. The enzyme activity lost at metallo-β-lactamase (after overnight incubation) was greater than 99%. Also, the “Microbiological activity / effect” value in test [2] is given as “lowers the MICs of piperacillin for all the E. coli strains containing β-lactamases”.
